Laboratory results reported in patent US20120277269A1 (priority 2008, published 2012).
Like-named read-outs stand apart in the source and are kept apart here.

Legend:
[1] = system: Patients with Non-Valvular Atrial Fibrillation; details: in vivo; cited from earlier work
[2] = system: patients with atrial fibrillation at risk of stroke
From the text: Median follow-up was 2.0 years and the primary outcome was stroke or systemic embolism.
Patients were recruited from 951 clinical centers in 44 countries. In brief, patients were eligible if they had atrial fibrillation documented on electrocardiogram at screening or within 6 months; and at least one of the following: prior stroke or transient ischemic attack; left ventricular ejection fraction less than 40%; New York Heart Association heart failure symptoms of Class 2 or greater within 6 months; age at least 75 years; or age at least 65 years with diabetes mellitus, hypertension or coronary artery disease.
The time in therapeutic range was calculated by the method of Rosendaal (Rosendaal F R, et al., A method to determine the optimal intensity of oral anticoagulant therapy, Thromb Haemost, 1993, 69:236-239), excluding INRs from the first week and after discontinuations. […] Concomitant use of aspirin (less than 100 mg/day) or other antiplatelet agents was allowed.
Liver function testing was performed monthly during the first year of follow-up.
The primary study outcome was stroke or systemic embolism. The primary safety outcome was major hemorrhage. Secondary outcomes were stroke, systemic embolism and death. Other outcomes were myocardial infarction, pulmonary embolism, transient ischemic attacks, and hospitalizations. The primary net benefit-risk outcome was the composite of stroke, systemic embolism, pulmonary embolism, myocardial infarction, death or major hemorrhage. Stroke was defined as sudden onset of focal neurological deficit consistent with the territory of a major cerebral artery and categorized as ischemic, hemorrhagic or unspecified. Hemorrhagic transformation of ischemic stroke was not considered as hemorrhagic stroke. Intracranial hemorrhage included hemorrhagic stroke and sub-dural or sub-arachnoid hemorrhage. Systemic embolism was an acute vascular occlusion of an extremity or organ documented by imaging, surgery or autopsy. Major bleeding was defined as a reduction in hemoglobin level of at least […] or transfusion of at least 2 units of blood or symptomatic bleeding in a critical area or organ. Life-threatening bleeding was a subset of major bleeding that included fatal bleeding, symptomatic intracranial bleeding, bleeding with hemoglobin decrease of more than […] or requiring transfusion of more than 4 units of blood or requiring inotropic agents or necessitating surgery. All other bleeding was considered minor.
All primary and secondary outcome events were blindly and doubly adjudicated. An international team of adjudicators reviewed documents in local languages after blinding; or documents were translated by a independent group and blinded centrally. All transient ischemic attacks were reviewed to ensure that strokes had not been missed. To detect possible unreported events, symptom questionnaires were regularly administered to patients, and adverse events and hospitalization reports were scrutinized for unreported primary or secondary outcomes.
If maximum of the two p-values was greater than 0.025, the minimum of the two p-values must be less than 0.0125, one-sided, to claim statistical significance. All analyses were based on intention-to-treat.

AF patients [3] = details: BAFTA; mean follow-up 2.7 years; cited from earlier work
AF patients [4] = details: SPORTIF V; Warfarin vs. Ximelagatran; mean follow-up 1.66 years; cited from earlier work
AF patients [5] = details: SPORTIF III; Warfarin vs. Ximelagatran; mean follow-up 1.45 years; cited from earlier work
AF patients [6] = details: ACTIVE W; mean follow-up 1.3 years; cited from earlier work

In the case of `CCOC(=O)CN[C@@H](C(=O)N1CC[C@H]1C(=O)NCc1ccc(/C(N)=N\O)cc1)C1CCCCC1` [Ximelagatran], the Hepatotoxicity [1] is listed as “found to be hepatotoxic”.
For `CC(=O)CC(c1ccccc1)c1c(O)c2ccccc2oc1=O` (racemic) [Warfarin, 3-(α-acetonylbenzyl)-4-hydroxycoumarin], the “ALT or AST > 3xULN with concurrent bilirubin > 2xULN” value ([2]; Warfarin) was “(0.4) %”, the “Adverse Event: Arthralgia” value ([2]; Warfarin) was “(5.5) %” and the “Adverse Event: Atrial fibrillation” value ([2]; Warfarin) was “(5.4) %”. The “Adverse Event: Back pain” value ([2]; Warfarin) was “(5.5) %”, the “Adverse Event: Chest pain” value ([2]; Warfarin) was “(5.7) %” and the “Adverse Event: Cough” value ([2]; Warfarin) was “(5.8) %”. For the same compound, the “Adverse Event: Diarrhea” value ([2]; Warfarin) was “(5.5) %”, the “Adverse Event: Dizziness” value ([2]; Warfarin) was “(9.3) %” and the “Adverse Event: Dyspepsia” value ([2]; Warfarin) was “(1.4) %”. The “Adverse Event: Dyspnoea” value ([2]; Warfarin) was “(9.2) %”, the “Adverse Event: Fatigue” value ([2]; Warfarin) was “(5.9) %” and the “Adverse Event: Nasopharyngitis” value ([2]; Warfarin) was “(5.5) %”. For the same compound, the “Adverse Event: Peripheral edema” value ([2]; Warfarin) was “(7.6) %”, the “Adverse Event: Upper respiratory tract infection” value ([2]; Warfarin) was “(5.0) %” and the “Adverse Event: Urinary tract infection” value ([2]; Warfarin) was “(5.3) %”. For the same compound, the “Life threatening major bleeding, Rate” value ([2]; Warfarin) was 1.80 /100 Person Years, the “Liver Function Test Abnormalities: ALT or AST > 3xULN” value ([2]; Warfarin) was “(2.1) %” and the “Pulmonary embolism, Rate” value ([2]; Warfarin) was 0.09 /100 Person Years. For the same compound, the “Reason for discontinuation: Gastrointestinal bleeding” value ([2]; Warfarin) was “(0.9) %”, the “Reason for discontinuation: Gastrointestinal disorders (including pain, vomiting and diarrhea)” value ([2]; Warfarin) was “(0.8) %” and the “Reason for discontinuation: SAE” value ([2]; Warfarin) was “(1.6) %”. For the same compound, the “hepatobiliary disorders (AE)” value ([2]; Warfarin) was “(2.2) %”, the “hepatobiliary disorders (SAE)” value ([2]; Warfarin) was “(0.4) %” and the “Rate of primary outcome, stroke or systemic embolism” value ([2]; warfarin, median follow-up 2.0 years) was 1.70 % per year. For the same compound, the “Myocardial Infarction” value (AF patients [3]) was 1.1% (warfarin), the “Myocardial Infarction” value (AF patients [4]) was 1.4% (warfarin) and the “Myocardial Infarction” value (AF patients [5]) was 0.6% (warfarin). For the same compound, the “Myocardial Infarction” value (AF patients [6]) was 0.6% (warfarin).
